In ChEMBL document CHEMBL3994669, “Curcumin May (Not) Defy Science” (2017) one finds Activity data, which are given here for two compounds.

Holding throughout (type): functional
The test system of assay [1] is Homo sapiens. Briefly: Antirheumatoid arthritic activity in patient assessed as disease activity score at 50 mg, po bid for 8 weeks (reference value: 6.72 +/- 0.87).
Assay [2] relates to Homo sapiens. Briefly: Antirheumatoid arthritic activity in patient assessed as visual analogue scale at 50 mg, po bid for 8 weeks (reference value: 78.25 +/- 11.25).
The test system of assay [3] is Homo sapiens. Briefly: Anti-inflammatory activity in COPD patient assessed as change in DBP at 90 mg, po bid for 24 weeks (reference value: 2.9%).
The subject of assay [4] is Homo sapiens. Briefly: Anti-inflammatory activity in COPD patient assessed as change in LDL-C level at 90 mg, po bid for 24 weeks (11.4%).
Assay [5] relates to Homo sapiens. Briefly: Anti-inflammatory activity in COPD patient assessed as change in SBP at 90 mg, po bid for 24 weeks (reference value: 1.4%).
The test system of assay [6] is Homo sapiens. Briefly: Antirheumatoid arthritic activity in patient assessed as disease activity score at 500 mg, po bid for 8 weeks (reference value: 6.4 +/- 0.73).
Assay [7] relates to Homo sapiens. Briefly: Anti-inflammatory activity in COPD patient assessed as change in BMI at 90 mg, po bid for 24 weeks (reference value: -0.7%).
Assay [8] has as its system Homo sapiens. Briefly: Anti-inflammatory activity in COPD patient assessed as change in creatinine level at 90 mg, po bid for 24 weeks (1.4%).
Assay [9] has as its system Homo sapiens. Briefly: Anti-inflammatory activity in COPD patient assessed as change in forced expiratory volume in 1 second at 90 mg, po bid for 24 weeks (-3.6%).
The subject of assay [10] is Homo sapiens. Briefly: Antirheumatoid arthritic activity in patient assessed as visual analogue scale at 500 mg, po bid for 8 weeks (reference value: 68.57 +/- 17.14).
In assay [11] the test system is Homo sapiens. Briefly: Anti-inflammatory activity in COPD patient assessed as change in C-reactive protein level at 90 mg, po bid for 24 weeks (11.1%).
Assay [12] relates to Homo sapiens. Briefly: Anti-inflammatory activity in COPD patient assessed as change in blood sugar level at 90 mg, po bid for 24 weeks (14.5%).
Assay [13] relates to Homo sapiens. Briefly: Anti-inflammatory activity in COPD patient assessed as change in SAA-LDL level at 90 mg, po bid for 24 weeks (10.8%).
For assay [14], the system named is Homo sapiens. Briefly: Anti-inflammatory activity in COPD patient assessed as change in HDL-C level at 90 mg, po bid for 24 weeks (2%).
For assay [15], the system named is Homo sapiens. Briefly: Anti-inflammatory activity in COPD patient assessed as change in triglyceride level at 90 mg, po bid for 24 weeks (14.5%).
The test system of assay [16] is Homo sapiens. Briefly: Anti-inflammatory activity in COPD patient assessed as change in HbA1c level at 90 mg, po bid for 24 weeks relative to placebo treated control.
For assay [17], the system named is Homo sapiens. Briefly: Anti-inflammatory activity in COPD patient assessed as change in gammaGTP level at 90 mg, po bid for 24 weeks (-1.2%).
Assay [18] deals with Homo sapiens. Briefly: Anti-inflammatory activity in COPD patient assessed as change in uric acid level at 90 mg, po bid for 24 weeks (2.3%).
Assay [19] deals with Homo sapiens. Briefly: Antirheumatoid arthritic activity in patient assessed as visual analogue scale at 500 mg, po bid for 8 weeks in presence of diclofenac sodium (reference value: 77.25 +/- 9.65).
Assay [20] relates to Homo sapiens. Briefly: Antirheumatoid arthritic activity in patient assessed as disease activity score at 500 mg, po bid for 8 weeks in presence of diclofenac sodium (reference value: 6.44 +/- 0.51).
Assay [21] concerns Homo sapiens. Briefly: Anti-inflammatory activity in COPD patient assessed as change in AT-LDL level at 90 mg, po bid for 24 weeks (14.8%).

With `O=C([O-])Cc1ccccc1Nc1c(Cl)cccc1Cl.[Na+]` [DICLOFENAC SODIUM], the Activity was determined as 3.89 in assay [1] and 39.17 in assay [2].
For `COc1cc(/C=C/C(=O)CC(=O)/C=C/c2ccc(O)c(OC)c2)ccc1O` [CURCUMIN], the Activity in assay [3] is 3.5%; in assay [4] it was 4.6%; in [5], -1.3%; in assay [6] it was 3.55; in [7] it was 0.9%; in assay [8] it was 2.9%. In addition, the Activity is reported as -1.9% in [9]; 27.5 in [10]; -12.5% in assay [11]; 5.8% in [12]; -2% in assay [13]; -2.8% in assay [14]. Moreover, the Activity in [15] is listed as 9.2%; in assay [16], 0.4%; in [17], -5.7%; in assay [18], 2.4%; in assay [19], 34.29; in assay [20], 3.58. In addition, the Activity in [21] is on record as -1.6%.
